These results are taken from ChEMBL document CHEMBL4610006, “Tetrahydroquinoline units in flexible heteroarotinoids (Flex-Hets) convey anti-cancer properties in A2780 ovarian cancer cells” (Bioorg Med Chem, 2020).

In experiment [1] the target is T1, Stress-70 protein, mitochondrial (Homo sapiens, UniProt P38646).
Description: Binding affinity to mortalin substrate binding domain (unknown origin) assessed as change in Gibbs free energy
The target in experiment [2] is T1, Stress-70 protein, mitochondrial. Description: Binding affinity to mortalin substrate binding domain (unknown origin).
The subject of experiment [3] is A2780. Description: Antiproliferative activity against human A2780 cells assessed as cell growth inhibition measured after 72 hrs by CellTiter 96 non-radioactive cell proliferation assay. The class given is functional, cell-based. Conditions: A2780, 72 h.
In experiment [4] the test system is A2780. Description: Antiproliferative activity against human A2780 cells assessed as cell growth inhibition at 2 to 8 uM measured after 72 hrs by CellTiter 96 non-radioactive cell proliferation assay relative to control. The class given is functional.

T1 sequence (P38646 whole entry, the tested form may be a part): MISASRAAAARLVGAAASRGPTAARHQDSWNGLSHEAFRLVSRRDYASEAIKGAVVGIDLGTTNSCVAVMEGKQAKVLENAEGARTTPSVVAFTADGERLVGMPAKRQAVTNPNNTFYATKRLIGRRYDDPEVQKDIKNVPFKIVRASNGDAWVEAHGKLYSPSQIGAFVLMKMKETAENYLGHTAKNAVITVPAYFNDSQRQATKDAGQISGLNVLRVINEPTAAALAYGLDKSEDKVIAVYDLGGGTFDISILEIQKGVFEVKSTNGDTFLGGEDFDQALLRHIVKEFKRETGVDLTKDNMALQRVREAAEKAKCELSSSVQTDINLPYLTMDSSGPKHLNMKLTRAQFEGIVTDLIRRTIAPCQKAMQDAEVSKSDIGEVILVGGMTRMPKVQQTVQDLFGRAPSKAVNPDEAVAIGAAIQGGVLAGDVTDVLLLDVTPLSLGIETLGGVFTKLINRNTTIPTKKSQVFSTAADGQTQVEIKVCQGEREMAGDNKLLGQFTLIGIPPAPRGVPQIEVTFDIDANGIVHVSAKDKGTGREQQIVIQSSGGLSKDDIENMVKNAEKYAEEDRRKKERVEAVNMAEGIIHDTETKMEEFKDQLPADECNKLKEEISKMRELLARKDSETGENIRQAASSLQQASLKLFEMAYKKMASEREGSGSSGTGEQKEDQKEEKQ

`CC1(C)CCNc2ccc(NC(=S)Nc3ccc([N+](=O)[O-])cc3)cc21` showed a deltaG in experiment [1] of -7.9 kcal/mol. Further, the Kd in experiment [2] was 1.6 µM. Besides, the IC50 in the experiment with A2780 [3] worked out at 7.1 µM.

`CN1c2ccc(NC(=S)Nc3ccc([N+](=O)[O-])cc3)cc2C(C)(C)CC1(C)C` came in with a deltaG in experiment [1] of -8.7 kcal/mol. The compound further showed a Kd in experiment [2] of 0.5 µM. Also, the 50% inhibitory concentration (IC50) in the experiment on A2780 [3] amounted to 4.5 µM.

Regarding `CC1(C)CC(C)(C)c2cc(NC(=S)Nc3ccc([N+](=O)[O-])cc3)ccc2S1` [SHETA-2], in experiment [1], the deltaG was -8.5 kcal/mol. Besides, the Kd in experiment [2] was 0.6 µM.

Take `CN1c2ccc(NC(=S)Nc3ccc([N+](=O)[O-])cc3)cc2C(C)(C)C(=O)C1(C)C`: the deltaG in experiment [1] was -8.2 kcal/mol. The same compound showed a Kd in experiment [2] of 1.1 µM. In the experiment with A2780 [3], the IC50 was found to be 4.4 µM.

`CN1c2ccc(NC(=O)Nc3ccc(N)cc3)cc2C(C)(C)C(=O)C1(C)C` registered a deltaG in experiment [1] of -8.2 kcal/mol. Also, binding in experiment [2] was characterised by a dissociation constant (Kd) of 1.1 µM. Further, the IC50 in the experiment on A2780 [3] was determined as 7.7 µM.

In experiment [1], `CC1(C)CCNc2ccc(NC(=S)Nc3ccc(C(F)(F)F)cc3)cc21` showed a deltaG of -7.5 kcal/mol. Also, the Kd in experiment [2] was 3.3 µM. In addition, in the experiment on A2780 [3], the concentration for half-maximal inhibition (IC50) was 6 µM.

Compound `CN1c2ccc(NC(=O)Nc3ccc(C(F)(F)F)cc3)cc2C(C)(C)C(O)C1(C)C` (configuration not stated) returned a deltaG in experiment [1] of -8.4 kcal/mol. The Kd in experiment [2] amounted to 0.7 µM. The IC50 in the experiment on A2780 [3] is 6.7 µM.

`CC1(C)CCNc2ccc(NC(=S)Nc3ccc(OC(F)(F)F)cc3)cc21` showed a deltaG in experiment [1] of -7.2 kcal/mol. This compound also came in with a Kd in experiment [2] of 5.4 µM. Besides, in the experiment with A2780 [3], the 50% inhibitory concentration (IC50) was found to be 7.1 µM.

Compound `CC1(C)CC[N+](C)(C)c2ccc(NC(=O)Nc3ccc([N+](=O)[O-])cc3)cc21` yielded a deltaG in experiment [1] of -8.5 kcal/mol. The Kd in experiment [2] stood at 0.7 µM. The IC50 in the experiment with A2780 [3] came to 6.6 µM.

In turn, `CC1(C)CCNc2ccc(NC(=O)Nc3ccc([N+](=O)[O-])cc3)cc21` returned a deltaG in experiment [1] of -8.2 kcal/mol. For the same compound, the Kd in experiment [2] came to 1.1 µM. Moreover, the half-inhibitory concentration (IC50) in the experiment with A2780 [3] is 6.9 µM.

Regarding `CN1c2ccc(NC(=S)Nc3ccc(C(F)(F)F)cc3)cc2C(C)(C)C(=O)C1(C)C`, the Efficacy with A2780 [4] is listed as 90.8%. Moreover, the IC50 in the experiment on A2780 [3] turned out to be 3.9 µM.

In the case of `CN1c2ccc(NC(=O)Nc3ccc([N+](=O)[O-])cc3)cc2C(C)(C)C(=O)C1(C)C`, the deltaG in experiment [1] was -8.9 kcal/mol. In experiment [2], the Kd was 0.3 µM. Moreover, in the experiment on A2780 [3], the IC50 came to 3.8 µM.

Compound `CN1c2ccc(NC(=S)Nc3ccc(OC(F)(F)F)cc3)cc2C(C)(C)C(=O)C1(C)C` came in with a deltaG in experiment [1] of -7.7 kcal/mol. The dissociation constant Kd in experiment [2] was found to be 2.4 µM. Further, in the experiment with A2780 [3], the half-inhibitory concentration (IC50) came out at 5.4 µM.

Turning to `CN1c2ccc(NC(=S)Nc3ccc([N+](=O)[O-])cc3)cc2C(C)(C)C(O)C1(C)C` (configuration not stated), the Efficacy in the experiment with A2780 [4] is given as 25%. For the same compound, the IC50 in the experiment on A2780 [3] stood at 10 µM.

Regarding `CN1c2ccc(NC(=S)Nc3ccc(C(F)(F)F)cc3)cc2C(C)(C)C(O)C1(C)C` (configuration not stated), in experiment [1], the deltaG is -7.7 kcal/mol. The same compound had an equilibrium dissociation constant (Kd) in experiment [2] of 2.3 µM. Further, the IC50 in the experiment on A2780 [3] amounted to 7.6 µM.

The compound `CN1c2ccc(NC(=O)Nc3ccc(OC(F)(F)F)cc3)cc2C(C)(C)C(O)C1(C)C` (configuration not stated) showed a deltaG in experiment [1] of -8.2 kcal/mol. In experiment [2], this compound yielded a Kd of 1.1 µM. Besides, the IC50 in the experiment on A2780 [3] was 7.8 µM.

With `CN1c2ccc(NC(=S)Nc3ccc(OC(F)(F)F)cc3)cc2C(C)(C)C(O)C1(C)C` (configuration not stated), in experiment [1], the deltaG is -7.6 kcal/mol. In addition, the affinity in experiment [2], expressed as Kd, was 2.9 µM. In addition, in the experiment with A2780 [3], the IC50 came to 13.1 µM.

`CN1c2ccc(NC(=O)Nc3ccc(OC(F)(F)F)cc3)cc2C(C)(C)C(=O)C1(C)C` gave a deltaG in experiment [1] of -7.9 kcal/mol. The same compound came in with a Kd in experiment [2] of 1.8 µM. Also, the IC50 with A2780 [3] came out at 2.4 µM.

Consider `CN1c2ccc(NC(=O)Nc3ccc([N+](=O)[O-])cc3)cc2C(C)(C)C(O)C1(C)C` (configuration not stated), for which the deltaG in experiment [1] is -8 kcal/mol. For the same compound, in experiment [2], binding was characterised by a dissociation constant (Kd) of 1.6 µM. The IC50 in the experiment with A2780 [3] is 8.4 µM.

For `CN1c2ccc(NC(=O)Nc3ccc(C(F)(F)F)cc3)cc2C(C)(C)C(=O)C1(C)C`, the deltaG in experiment [1] is -8 kcal/mol. The same compound displayed a Kd in experiment [2] of 1.5 µM. Also, the IC50 with A2780 [3] came out at 2.58 µM.
